≈ marks a conversion by molar mass, not a printed value.
Test system: Plasmodium falciparum
Assay: Antimalarial activity against chloroquine-sensitive Plasmodium falciparum NF54 assessed as inhibition of maturation of rings into schizonts stage
Format: functional

**Q.** `CCCCNCC[C@@H](C)[C@H]1CC[C@H]2[C@@H]3CC[C@@H]4C[C@H](OC(C)=O)CC[C@]4(C)[C@H]3C[C@H](OC(C)=O)[C@]12C` was tested. Which MIC did it give?
**A.** > 50 µg/mL

**Q.** Which MIC does the source give for `CC(=O)O[C@@H]1CC[C@@]2(C)[C@H](CC[C@@H]3[C@@H]2C[C@H](OC(C)=O)[C@]2(C)[C@@H]([C@H](C)CCNC(C)C)CC[C@@H]32)C1` here?
**A.** > 50 µg/mL

**Q.** `CC(=O)O[C@@H]1CC[C@@]2(C)[C@H](CC[C@@H]3[C@@H]2C[C@H](OC(C)=O)[C@]2(C)[C@@H]([C@H](C)CCNCc4ccccc4)CC[C@@H]32)C1` was tested. Which MIC did it give?
**A.** 50 µg/mL (≈ 93 µM)

**Q.** With `CC(=O)O[C@@H]1CC[C@@]2(C)[C@H](CC[C@@H]3[C@@H]2C[C@H](OC(C)=O)[C@]2(C)[C@@H]([C@H](C)CNCCCCNc4ccnc5cc(Cl)ccc45)CC[C@@H]32)C1` as the compound, how does the MIC read?
**A.** 1 µg/mL (≈ 1.5 µM)

**Q.** How did the MIC turn out when `CC(=O)O[C@@H]1CC[C@@]2(C)[C@H](CC[C@@H]3[C@@H]2C[C@H](OC(C)=O)[C@]2(C)[C@@H]([C@H](C)CNCCCNc4ccnc5cc(Cl)ccc45)CC[C@@H]32)C1` was run?
**A.** 0.5 µg/mL (≈ 0.766 µM)

**Q.** With `CCCCNC[C@@H](C)[C@H]1CC[C@H]2[C@@H]3CC[C@@H]4C[C@H](OC(C)=O)CC[C@]4(C)[C@H]3C[C@H](OC(C)=O)[C@]12C` as the compound, how does the MIC read?
**A.** > 10 µg/mL

**Q.** For `CC(=O)O[C@@H]1CC[C@@]2(C)[C@H](CC[C@@H]3[C@@H]2C[C@H](OC(C)=O)[C@]2(C)[C@@H]([C@H](C)CNC(C)C)CC[C@@H]32)C1`, which MIC is on record?
**A.** 10 µg/mL (≈ 21 µM)

**Q.** With `CC(=O)O[C@@H]1CC[C@@]2(C)[C@H](CC[C@@H]3[C@@H]2C[C@H](OC(C)=O)[C@]2(C)[C@@H]([C@H](C)CNCc4ccccc4)CC[C@@H]32)C1` as the compound, how does the MIC read?
**A.** 2 µg/mL (≈ 3.82 µM)

**Q.** `NCCCNc1ccnc2cc(Cl)ccc12` was tested. Which MIC did it give?
**A.** 10 µg/mL (≈ 42.4 µM)

**Q.** For `NCCCCNc1ccnc2cc(Cl)ccc12`, which MIC is on record?
**A.** 2 µg/mL (≈ 8.01 µM)

**Q.** For `CCN(CC)CCCC(C)Nc1ccnc2cc(Cl)ccc12` (stereo unspecified) [CHLOROQUINE], which MIC is on record?
**A.** 0.04 µg/mL (≈ 0.125 µM)

Source: ChEMBL document CHEMBL3044553, “Amino steroids as antimalarial agents” (2008)
